Results: patent US9051456B2, “Agent for drug clearance and accelerator for drug clearance” (SEIKAGAKU CORPORATION, priority 2005, dated 2015)

Assay: Elimination of FP from inside of the oral cavity by gargling/rinsing (Tests 1 to 6), FP in spat-out liquids measured by HPLC
Type: in vivo, human (healthy adult volunteers)
Conditions: conclusion from Tests 1 to 6
Experimental: Healthy 5 adult volunteers were selected. In this connection, these volunteers received sufficient explanation from a doctor based on a descriptive document, and after understanding the explanation, submitted a document on their own judgment stating that they approved the participation in the test.
In this connection, application of FP was carried out by directly applying the FP (dry powder) took out on powder papers. Also, the subjects were given attention not to inhale the FP applied into the oral cavity from the bronchus to the lungs.
Test 1: After rinsing inside of the oral cavity, inside of the oral cavity was dried by blowing air for 30 seconds with a dryer, and then FP (100 μg) was sparged to the oral cavity. Thereafter, rinsing of the mouth with looking upward (gargling) was carried out for 5 seconds and then rinsing of the mouth facing front (rinsing) was carried out for 5 seconds (these are regarded as once), respectively using 20 ml of purified water, which was repeated 5 times. […]
In each test, the liquids spat out after gargling and rinsing by each subject were recovered, and FP concentrations in said liquids were respectively measured. […]
Based on the measured FP concentrations, amounts of FP eliminated from inside of the oral cavity were calculated, and mean value and standard deviation (SD) in each test were calculated. […]

Substance: hyaluronic acid [HA]
- overall effect on elimination of drugs and acceleration of elimination: markedly effective
